{"source": "patent US9758501B2", "about": "“Fluorophore 3-hydroxyflavone” (TUBITAK (TURKIYE BILIMSEL VE TEKNOLOJIK ARASTIRMA KURUMU), priority 2013, dated 2017)", "key": {"[1]": {"test_system": "T25: single-strain DNA chain, comprising 25 Thymines", "assay": "Fluorescence N*/T* ratio vs DNA concentration, T25", "conditions": "T25 added to 3-HFNMe3 in ultra pure water", "method": "T25: A single-strain DNA chain, comprising 25 Thymines\n(§1) Fluorescence emission was then recorded after each addition the DNA solution (2 μl, 20 nmol/ml). The ratio of N* and T* bands was calculated and a graph, having N*/T* ratio vs DNA concentration was plotted."}, "[2]": {"test_system": "C25: single-strain DNA chain, comprising 25 Cytosines", "assay": "Fluorescence N*/T* ratio vs DNA concentration, C25", "conditions": "C25 added to 3-HFNMe3 in ultra pure water", "method": "C25: A single-strain DNA chain, comprising 25 Cytosines\nas §1"}, "single-strain DNA chains": {"test_system": "single-strain DNA chains", "assay": "Fluorescence measurements on gradual addition of DNA solution", "conditions": "ultra pure water; DNA solution added in 2 μl portions (20 nmol/ml)", "method": "as §1"}}, "data": [{"substance": "N-(3-hydroxy-4′-flavonyl)-N,N,N-trimethylammonium sulphate [3-HFNMe3]", "values": [{"measurement": "N*/T* curve, rank among DNA chains", "setting": "[1]", "result": "lowest"}, {"measurement": "N*/T* curve, rank among DNA chains", "setting": "[2]", "result": "highest"}, {"measurement": "effect of DNA addition on fluorescence emission", "setting": "single-strain DNA chains", "result": "ratiometric quenching of particularly the N* band"}]}]}
